The record followed here is ChEMBL document CHEMBL1201862, “PubChem BioAssay data set” (2004).

Test in all cases: inhibition of tumour cell growth, NCI panel, 48 h
In experiment [1] the test system is UO-31.
Experiment [2] deals with SK-MEL-28.
The test system of experiment [3] is CAKI-1.
Experiment [4] deals with NCI-H460.
Experiment [5] concerns SF-539.
The test system of experiment [6] is SR.
Experiment [7] has as its system COLO 205.
Experiment [8] has as its system HCC 2998.
Experiment [9] concerns TK-10.
The test system of experiment [10] is SK-MEL-5.
Experiment [11] has as its system DLD-1.
The subject of experiment [12] is SN12C.
Experiment [13] concerns EKVX.
Experiment [14] relates to NCI-H226.
Experiment [15] relates to HCT-15.
Experiment [16] concerns A498.
In experiment [17] the test system is T47D.
Experiment [18] has as its system MDA-MB-231.
For experiment [19], the system named is NCI/ADR-RES.
The subject of experiment [20] is MDA-MB-435.

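Method: 48-hour compound exposure of cells in 96-well plates, five concentrations, linear interpolation of endpoints. The concentration for 50% growth inhibition is given as GI50.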 The source made the active and inactive calls. No stated cut-off is given here; in the data, active = GI50 up to about 1.1 µM and inactive = higher. Where only a bound is given, the exact number is not on record here.

For `Cc1ccc(NC(=O)CC(=O)n2nc(-c3ccccc3)c(/N=N\c3ccccc3[N+](=O)[O-])c2-c2ccccc2)cc1`, the GI50 in experiment [1] was > 100 µM (inactive); in [2], > 100 µM (inactive); in experiment [3], 69.7 µM (inactive); in experiment [4] it was 35.8 µM (inactive); in experiment [5], 37.2 µM (inactive); in experiment [6], > 100 µM (inactive). The GI50 was > 100 µM (inactive) in experiment [7]; > 100 µM (inactive) in [8]; > 100 µM (inactive) in experiment [9]; 57.5 µM (inactive) in experiment [10]; 77.8 µM (inactive) in experiment [11]; > 100 µM (inactive) in experiment [12]. For the same compound, in [13], the GI50 was > 100 µM (inactive).
For the compound `Cc1ccc2nc3cc(C)c(=O)cc-3sc2c1`, the GI50 is 67.3 µM (inactive) in experiment [1]; > 100 µM (inactive) in experiment [2]; 39.7 µM (inactive) in [3]; > 100 µM (inactive) in experiment [4]; > 100 µM (inactive) in experiment [5]; 17 µM (inactive) in experiment [6]. Besides, the GI50 is 94.8 µM (inactive) in experiment [7]; 73.1 µM (inactive) in experiment [14]; > 100 µM (inactive) in experiment [8]; 52.8 µM in [15]; > 100 µM (inactive) in experiment [9]; 44.9 µM (inactive) in experiment [10]. Further, the GI50 in [11], in [12] and in experiment [13] was > 100 µM (inactive) in each case.
In the case of `COP(=O)(OC)/C(=N\Nc1ccc([N+](=O)[O-])cc1)NCc1ccccc1`, the GI50 is 30.8 µM (inactive) in experiment [2]; 38.6 µM (inactive) in [3]; 27.8 µM (inactive) in experiment [4]; 17.7 µM (inactive) in [5]; 20.3 µM (inactive) in [6]; 46.3 µM (inactive) in experiment [7]. Also, the GI50 in experiment [8] is 62.5 µM (inactive); in [15], 32.4 µM; in [9] it was 30 µM (inactive); in experiment [10], 17.5 µM (inactive); in [11], 33.3 µM (inactive).
As to `CCc1nc2ccccc2c(=O)n1/N=C(\N=N\c1ccc(Cl)cc1)c1ccccc1`, the GI50 in experiment [1] was 19.5 µM (inactive); in experiment [2], 32 µM (inactive); in experiment [3] it was 17 µM (inactive); in experiment [4] it was 27.4 µM (inactive); in experiment [5], 22.5 µM (inactive); in [16], 26.7 µM (inactive). The GI50 was 31.3 µM (inactive) in experiment [7]; 21.8 µM (inactive) in [14]; 29.2 µM (inactive) in experiment [8]; 39.6 µM in [15]; 31 µM (inactive) in experiment [9]; 18.4 µM (inactive) in experiment [10]. Further, the GI50 is 37.2 µM (inactive) in experiment [11], 36 µM (inactive) in experiment [12] and 26.1 µM (inactive) in experiment [13].
For the compound `COc1ccc(/C=C2\CCCC(C(NO)c3ccc(OC)cc3)C2=NO)cc1` (centres undefined), the GI50 in experiment [1] is 28.8 µM (inactive); in [2] it was 26.9 µM (inactive); in experiment [3], 49 µM (inactive); in experiment [4], 59.8 µM (inactive); in [5], 27.5 µM (inactive); in [16] it was 36.1 µM (inactive). The GI50 in [7] was 44.3 µM (inactive); in experiment [8], 61.2 µM (inactive); in experiment [15], 35.6 µM; in experiment [9] it was 66.1 µM (inactive); in [10], 20 µM (inactive); in [11], 46.7 µM (inactive). Further, the GI50 in experiment [12] was 39.3 µM (inactive); in experiment [13], 48.8 µM (inactive).
In the case of `O=C(/C=C/c1c(O)ccc2ccccc12)c1ccc2ccccc2c1`, the GI50 in experiment [1], in experiment [2], in experiment [3], in experiment [4], in [5] and in [16] was > 100 µM (inactive) throughout. The GI50 in experiment [7] was > 100 µM (inactive); in experiment [14], > 100 µM (inactive); in [8], > 100 µM (inactive); in experiment [15] it was > 100 µM; in experiment [9] it was > 100 µM (inactive); in [11], > 100 µM (inactive). Moreover, the GI50 in experiment [12] and in experiment [13] was > 100 µM (inactive) in each case.
On to `NN=C1/C(=C\c2ccccc2)CCC/C1=C/c1ccccc1`, for which the GI50 in experiment [1] is 27.1 µM (inactive); in experiment [2] it was 39.5 µM (inactive); in [4] it was 32 µM (inactive); in experiment [5], 24.4 µM (inactive); in experiment [16] it was 29.6 µM (inactive); in experiment [7] it was 26.9 µM (inactive). Moreover, the GI50 was 35.6 µM (inactive) in [8]; 36.7 µM in experiment [15]; > 100 µM (inactive) in experiment [9]; 31.8 µM (inactive) in [11]; 27 µM (inactive) in experiment [12]; 44.7 µM (inactive) in [13].
Turning to `COc1c(NC(C)=O)cc(C)cc1NC(C)=O`, the GI50 in experiment [2], in experiment [3], in [4], in experiment [5], in [6] and in [16] was > 100 µM (inactive) throughout. Moreover, the GI50 in [7] was > 100 µM (inactive); in experiment [8], > 100 µM (inactive); in [15] it was > 100 µM; in experiment [9], > 100 µM (inactive); in experiment [10] it was > 100 µM (inactive); in experiment [11] it was > 100 µM (inactive). The GI50 in [12] and in experiment [13] was > 100 µM (inactive) throughout.
Take `CC(=O)NC(CCCNC(=O)OCc1ccccc1)C(=O)O` (centres undefined): the GI50 in [1], in experiment [2], in [3], in experiment [4], in experiment [5] and in experiment [16] was > 100 µM (inactive) each time. Also, the GI50 in experiment [7] is > 100 µM (inactive); in experiment [14], > 100 µM (inactive); in experiment [8], > 100 µM (inactive); in [15] it was > 100 µM; in experiment [9], > 100 µM (inactive); in experiment [10] it was > 100 µM (inactive). In addition, the GI50 in experiment [11], in [12] and in experiment [13] was > 100 µM (inactive) in each case.
Take `O=C1c2cccnc2S(=O)(=O)N1c1ccc([N+](=O)[O-])cc1`: the GI50 in [1], in [2], in experiment [17], in experiment [3], in experiment [4] and in experiment [5] was > 100 µM (inactive) throughout. In addition, the GI50 is 29.9 µM (inactive) in [6]; > 100 µM (inactive) in experiment [16]; > 100 µM (inactive) in experiment [7]; > 100 µM (inactive) in experiment [14]; > 100 µM (inactive) in experiment [8]; > 100 µM in experiment [15]. Moreover, the GI50 in experiment [9], in experiment [10], in [12], in [18], in [19] and in experiment [20] was > 100 µM (inactive) throughout. The GI50 in experiment [13] was > 100 µM (inactive).
Regarding `CN(C)CCSCCO`, the GI50 in experiment [1], in experiment [2], in experiment [17], in [3], in experiment [4] and in experiment [5] was > 100 µM (inactive) throughout. Also, the GI50 in experiment [6] is > 100 µM (inactive); in [16], > 100 µM (inactive); in experiment [7], > 100 µM (inactive); in experiment [14], > 100 µM (inactive); in experiment [8] it was > 100 µM (inactive); in [15] it was > 100 µM. The GI50 in [9], in [10], in experiment [12], in experiment [18], in [19] and in [20] was > 100 µM (inactive) in each case. For the same compound, the GI50 in experiment [13] was > 100 µM (inactive).
With `C=CC[C@H]1[C@H](O[Si](C)(C)C(C)(C)C)C=CC(=O)[C@@H]1CC(=O)N(Cc1ccccc1)Cc1ccccc1`, the GI50 was 11.7 µM (inactive) in [1]; 49.5 µM (inactive) in experiment [2]; 3.3 µM (inactive) in experiment [17]; 12.4 µM (inactive) in experiment [3]; 20.6 µM (inactive) in [4]; 25.1 µM (inactive) in [5]. In addition, the GI50 in experiment [6] was 9.29 µM (inactive); in experiment [16] it was 57.5 µM (inactive); in [7], 12.9 µM (inactive); in experiment [14], 11.7 µM (inactive); in [8] it was 20.3 µM (inactive); in experiment [15] it was 9.73 µM. In addition, the GI50 in experiment [9] is 19.2 µM (inactive); in [10] it was 7.83 µM (inactive); in experiment [12], 18.8 µM (inactive); in experiment [18], 14.2 µM (inactive); in [19], 10.8 µM (inactive); in [20], 20.9 µM (inactive). Also, the GI50 in experiment [13] was 12.9 µM (inactive).
With `CC1(O)CCn2c(=O)c3cc4ccccc4cc3c(=O)n2C1O` (centres undefined), the GI50 in experiment [2], in [3], in experiment [4], in experiment [5], in [6] and in [7] was > 100 µM (inactive) in each case. In addition, the GI50 in [14] is > 100 µM (inactive); in experiment [8], > 100 µM (inactive); in experiment [15], > 100 µM; in [9], > 100 µM (inactive); in experiment [10], > 100 µM (inactive); in experiment [11] it was > 100 µM (inactive). Besides, the GI50 in experiment [12] and in experiment [13] was > 100 µM (inactive) throughout.
